Experimental data taken from patent publication US20230338337A1, “BIOMARKERS FOR CANCER THERAPY USING MDM2 ANTAGONISTS” (OTSUKA PHARMACEUTICAL CO., LTD., priority 2019, published 2023).
Like-named read-outs stand apart in the source and are kept apart here.

Experiments:
[1] = biological target: MDM2-p53 interaction (in vitro translated MDM2) (Homo sapiens (Human), UniProt Q00987); experiment: MDM2-p53 interaction 96-well plate binding assay (ELISA); details: for MDM2 % inhibition at 0.0010: at 0.0010 μM; for MDM2 % inhibition at 0.030: at 0.030 μM
[2] = tested on: SJSA-1 (p53 wild-type, MDM2 amplified osteosarcoma); experiment: Protocol A: SRB growth inhibition assay; details: read-out: SJSA-1 IC50 (μM) (Protocol A)
[3] = tested on: SJSA-1; experiment: Protocol B: CellTiter-Glo cell viability assay; details: read-out: SJSA1 IC50 (μM) (Protocol B); Protocol B

Chain of MDM2-p53 interaction (in vitro translated MDM2) (Q00987 whole entry): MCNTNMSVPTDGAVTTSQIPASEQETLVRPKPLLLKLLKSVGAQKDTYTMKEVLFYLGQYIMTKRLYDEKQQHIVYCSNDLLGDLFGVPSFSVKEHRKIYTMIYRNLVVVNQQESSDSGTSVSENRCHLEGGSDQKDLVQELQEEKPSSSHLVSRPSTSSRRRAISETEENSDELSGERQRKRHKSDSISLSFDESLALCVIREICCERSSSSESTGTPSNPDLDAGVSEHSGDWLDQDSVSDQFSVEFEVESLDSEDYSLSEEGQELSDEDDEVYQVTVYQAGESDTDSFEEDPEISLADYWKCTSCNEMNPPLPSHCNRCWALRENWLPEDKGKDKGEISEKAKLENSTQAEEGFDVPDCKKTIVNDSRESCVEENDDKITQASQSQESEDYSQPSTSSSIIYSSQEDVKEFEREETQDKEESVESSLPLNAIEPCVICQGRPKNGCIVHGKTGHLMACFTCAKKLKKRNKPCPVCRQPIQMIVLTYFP

Substance | IC50 [2] [µM] | IC50 [3] [µM] | MDM2 % inhibition at 0.0010 [1] [%@0.0010] | other results
1-({[(1R)-1-(4-chlorophenyl)-2-[(4-chlorophenyl)methyl]-5-(2-hydroxypropan-2-yl)-3-oxo-2,3-dihydro-1H-isoindol-1-yl]oxy}methyl)cyclopropane-1-carboxylic acid [Example 5] | 0.2 | – | – | IC50 ([1]; read-out: MDM2 IC50): 3.8 nM
1-({[(1R)-1-(4-chlorophenyl)-2-[(5-chloropyridin-2-yl)methyl]-7-fluoro-5-{1-hydroxy-1-[1-(2-hydroxyethyl)piperidin-4-yl]ethyl}-3-oxo-2,3-dihydro-1H-isoindol-1-yl]oxy}methyl)cyclopropane-1-carbonitrile [Example 420] | 0.49 | 0.87 | – | MDM2 % at concentration [1]: 68%@0.0010
2-{[(1R)-1-(4-chlorophenyl)-1-[(1-cyanocyclopropyl)methoxy]-7-fluoro-5-[1-(4-fluoro-1-methylpiperidin-4-yl)-1-hydroxypropyl]-3-oxo-2,3-dihydro-1H-isoindol-2-yl]methyl}pyrimidine-5-carbonitrile [Example 574] | 0.021 | – | 45 | –
2-{[(1R)-1-(4-chlorophenyl)-7-fluoro-5-[(1S)-1-hydroxy-1-(1-methylpiperidin-4-yl)propyl]-3-oxo-1-[(3S)-oxolan-3-yloxy]-2,3-dihydro-1H-isoindol-2-yl]methyl}pyrimidine-5-carbonitrile [Example 557] | 0.25 | – | 81 | –
5-{[(1R)-1-(4-chlorophenyl)-7-fluoro-5-[1-hydroxy-1-(1-methyl-1H-imidazol-4-yl)propyl]-3-oxo-1-[(3S)-oxolan-3-yloxy]-2,3-dihydro-1H-isoindol-2-yl]methyl}pyridine-2-carbonitrile [Example 431] | 0.11 | – | 48 | –
6-{[(1R)-1-(4-chlorophenyl)-7-fluoro-3-oxo-1-[(3S)-oxolan-3-yloxy]-5-[2,2,2-trifluoro-1-hydroxy-1-(1-methyl-1H-pyrazol-4-yl)ethyl]-2,3-dihydro-1H-isoindol-2-yl]methyl}pyridine-3-carbonitrile [Example 428] | 0.11 | – | 65 | –
6-{[(1R)-1-(4-chlorophenyl)-7-fluoro-5-[1-(4-fluorooxan-4-yl)-1-hydroxypropyl]-1-[(2R)-2-hydroxypropoxy]-3-oxo-2,3-dihydro-1H-isoindol-2-yl]methyl}pyridine-3-carbonitrile [Example 497] | 0.039 | – | 83 | –
6-{[(1R)-1-(4-chlorophenyl)-7-fluoro-5-[1-hydroxy-1-(1-methyl-1H-imidazol-4-yl)propyl]-1-(2-methoxyethoxy)-3-oxo-2,3-dihydro-1H-isoindol-2-yl]methyl}pyridine-3-carbonitrile [Example 430] | 0.11 | – | 59 | –
(2S)-3-{[(1R)-1-(4-Chlorophenyl)-2-[(5-chloropyridin-2-yl)methyl]-7-fluoro-5-(2-hydroxypropan-2-yl)-3-oxo-2,3-dihydro-1H-isoindol-1-yl]oxy}-2-methylpropanamide [Example 167] | 0.64 | – | – | –
(3R)-2-[(5-chloro-3-hydroxypyridin-2-yl)methyl]-3-(4-chlorophenyl)-4-fluoro-6-[1-hydroxy-1-(1-methyl-1H-imidazol-4-yl)propyl]-3-[cis-3-hydroxycyclobutoxy]-2,3-dihydro-1H-isoindol-1-one [Example 487] | 0.12 | – | 59 | –
(3R)-3-(4-chlorophenyl)-2-[(5-chloropyrimidin-2-yl)methyl]-4-fluoro-6-[1-(4-fluoropiperidin-4-yl)-1-hydroxypropyl]-3-[cis-3-hydroxycyclobutoxy]-2,3-dihydro-1H-isoindol-1-one [Example 542] | – | 3.1 | – | MDM2 % inhibition at 0.010 ([1]; at 0.010 μM): 57%@0.010
(3R)-3-(4-chlorophenyl)-4-fluoro-6-[1-hydroxy-1-(1-methyl-1H-pyrazol-4-yl)ethyl]-3-[(1-hydroxycyclopropyl)methoxy]-2-[(5-methoxypyridin-2-yl)methyl]-2,3-dihydro-1H-isoindol-1-one [Example 347] | – | 1.7 | – | MDM2 % at concentration ([1]; at 0.10 μM): 63%@0.10
(3R)-6-[1-(1-acetylpiperidin-4-yl)-1-hydroxyethyl]-2-{[5-chloro-3-(hydroxymethyl)pyridin-2-yl]methyl}-3-(4-chlorophenyl)-4-fluoro-3-methoxy-2,3-dihydro-1H-isoindol-1-one [Example 424] | – | 0.69 | – | MDM2 % inhibition at 0.0030 ([1]; at 0.0030 μM): 45%@0.0030

Continued, in another order:

IC50 [2] [µM] | IC50 [3] [µM] | MDM2 % inhibition at 0.0010 [1] [%@0.0010] | Substance | other results
0.07 | – | – | 1-({[(1R)-5-[1-(1-acetylpiperidin-4-yl)-1-hydroxyethyl]-1-(4-chlorophenyl)-2-[(5-chloropyridin-2-yl)methyl]-7-fluoro-3-oxo-2,3-dihydro-1H-isoindol-1-yl]oxy}methyl)cyclopropane-1-carbonitrile [Example 301] | MDM2 % at concentration [1]: 75%@0.0010
0.039 | – | 71 | 2-{[(1R)-1-(4-chlorophenyl)-7-fluoro-5-{1-hydroxy-1-[trans-4-hydroxycyclohexyl]propyl}-1-methoxy-3-oxo-2,3-dihydro-1H-isoindol-2-yl]methyl}pyrimidine-5-carbonitrile [Example 504] | –
0.035 | – | 77 | 6-{[(1R)-1-(4-chlorophenyl)-7-fluoro-5-{1-hydroxy-1-[trans-4-hydroxycyclohexyl]propyl}-1-methoxy-3-oxo-2,3-dihydro-1H-isoindol-2-yl]methyl}pyridine-3-carbonitrile [Example 521] | –
1.7 | 3.4 | – | (3R)-3-(4-chlorophenyl)-2-[(4-chlorophenyl)methyl]-4-fluoro-3-{[1-(hydroxymethyl)cyclopropyl]methoxy}-6-(2-hydroxypropan-2-yl)-2,3-dihydro-1H-isoindol-1-one [Example 2] | –
0.11 | – | – | (3R)-3-(4-chlorophenyl)-2-[(5-chloropyridin-2-yl)methyl]-4-fluoro-6-{1-hydroxy-1-[1-(2-hydroxyacetyl)piperidin-4-yl]ethyl}-3-methoxy-2,3-dihydro-1H-isoindol-1-one [Example 296] | MDM2 % at concentration [1]: 62%@0.0010
0.045 | – | 65 | (3R)-3-(4-chlorophenyl)-2-[(5-chloropyrimidin-2-yl)methyl]-4-fluoro-6-[1-(4-fluoro-1-methylpiperidin-4-yl)-1-hydroxypropyl]-3-(2-hydroxyethoxy)-2,3-dihydro-1H-isoindol-1-one [Example 565] | –
– | 1.8 | – | (3R)-3-(4-chlorophenyl)-2-[(5-chloropyrimidin-2-yl)methyl]-4-fluoro-6-[1-(4-fluoropiperidin-4-yl)-1-hydroxypropyl]-3-[(3S)-oxolan-3-yloxy]-2,3-dihydro-1H-isoindol-1-one [Example 540] | MDM2 % inhibition at 0.030 [1]: 33%@0.030
0.19 | – | – | (3R)-3-(4-chlorophenyl)-2-[(5-chloropyrimidin-2-yl)methyl]-4-fluoro-6-[1-(4-fluoropiperidin-4-yl)-1-hydroxypropyl]-3-[(3S)-oxolan-3-yloxy]-2,3-dihydro-1H-isoindol-1-one [Example 541] | MDM2 % inhibition at 0.00030 ([1]; at 0.00030 μM): 64%@0.0003
0.032 | – | 86 | (3R)-3-(4-chlorophenyl)-2-[(5-chloropyrimidin-2-yl)methyl]-4-fluoro-6-[1-(4-fluoropiperidin-4-yl)-1-hydroxypropyl]-3-methoxy-2,3-dihydro-1H-isoindol-1-one [Example 544] | –
– | 1.3 | – | (3R)-3-(4-chlorophenyl)-2-[(5-chloropyrimidin-2-yl)methyl]-4-fluoro-6-[1-hydroxy-1-(1-methyl-1H-imidazol-4-yl)propyl]-3-[(3S)-oxolan-3-yloxy]-2,3-dihydro-1H-isoindol-1-one [Example 474] | MDM2 % inhibition at 0.030 [1]: 38%@0.030
0.028 | – | 71 | (3R)-3-(4-chlorophenyl)-2-[(5-chloropyrimidin-2-yl)methyl]-4-fluoro-6-[1-hydroxy-1-(1-methyl-1H-imidazol-4-yl)propyl]-3-[(3S)-oxolan-3-yloxy]-2,3-dihydro-1H-isoindol-1-one [Example 475] | –
– | 0.6 | – | (3R)-3-(4-chlorophenyl)-2-[(5-chloropyrimidin-2-yl)methyl]-4-fluoro-6-[1-hydroxy-1-(1-methyl-1H-imidazol-4-yl)propyl]-3-{[1-(hydroxymethyl)cyclopropyl]methoxy}-2,3-dihydro-1H-isoindol-1-one [Example 476] | MDM2 % inhibition at 0.030 [1]: 51%@0.030
0.031 | – | 70 | (3R)-3-(4-chlorophenyl)-2-[(5-chloropyrimidin-2-yl)methyl]-4-fluoro-6-[(1S)-1-hydroxy-1-[1-(oxetan-3-yl)piperidin-4-yl]propyl]-3-methoxy-2,3-dihydro-1H-isoindol-1-one [Example 551] | –
0.019 | – | 82 | (3R)-3-(4-chlorophenyl)-2-[(5-chloropyrimidin-2-yl)methyl]-4-fluoro-6-{1-hydroxy-1-[trans-4-hydroxycyclohexyl]propyl}-3-(2-hydroxyethoxy)-2,3-dihydro-1H-isoindol-1-one [Example 517] | –
– | 1.9 | – | (3R)-3-(4-chlorophenyl)-2-[(5-chloropyrimidin-2-yl)methyl]-4-fluoro-6-{1-hydroxy-1-[trans-4-hydroxycyclohexyl]propyl}-3-(2-hydroxyethoxy)-2,3-dihydro-1H-isoindol-1-one [Example 519] | MDM2 % inhibition at 0.030 [1]: 35%@0.030
